Measurements from patent publication US20260274859A1, “FUSED POLYCYCLIC DERIVATIVE AND USE THEREOF” (ZHEJIANG HISUN PHARMACEUTICAL CO., LTD., priority 2023, published 2026).
pIC50: −log10 of the molar value.

Experiments:
Assay type in all cases: cell-based
[1] = tested on: A549 cells; test: Inhibition of proliferation of A549 cells (CCK8 or CTG); conditions: Homo sapiens, maximum concentration 10 μM, 5-fold dilution
Experimental: (1) A549 cells in the logarithmic growth phase were digested with 0.25% trypsin and counted. The cells were inoculated into 96-well plates at 2000 cells per well, and the 96-well plates were placed in an incubator containing 5% CO2 at 37° C. for 12 h of culture.
(§1) (2) Six concentration gradients for the compounds to be tested (with the maximum drug concentration of 10 μM and 5-fold dilution) were set. After the cells adhered to the wall, the compounds to be tested were serially diluted with DMSO, then diluted with 1640 complete medium to reach a concentration 1000 times the final concentration, and added to the corresponding wells.
(§2) (3) After the corresponding concentrations of the compounds to be tested were added, the plates were incubated in an incubator with 5% carbon dioxide at 37° C., and then the cell viability rate at each drug concentration was determined by CCK8 or CTG method. In addition, the IC50 value was calculated.

[2] = tested on: HL60 cells; test: Inhibition of proliferation of HL60 tumor cells (CCK8 or CTG); conditions: Homo sapiens, HL-60
Experimental: The effect of the compound of the present disclosure on the proliferation of tumor cells was determined using the following method. The HL60 cells used in the method were purchased from Nanjing Kebai Biotechnology Co., Ltd., and the kit was the Cell Counting Kit-8/CCK-8 kit of MCE Company (article number: HY—K0301, specification: 3000T).
(1) HL60 cells in logarithmic growth phase were prepared into a cell suspension. The cell suspension was added into a 96-well plate at 5000 cells/well. The 96-well cell culture plate was placed in a CO2 incubator for 4 h of incubation of suspended cells or for 12 h of incubation of adherent cells.
(2) The compounds to be tested were diluted with IMDM complete culture medium to reach a concentration twice the testing concentration, and added to the corresponding wells.
as §2

[3] = tested on: HK-2 cells; test: Inhibition of proliferation of HK-2 cells (normal cells; CCK8 or CTG); conditions: Homo sapiens, maximum concentration 10 μM, 5-fold dilution
Experimental: (1) HK-2 cells in the logarithmic growth phase were digested with 0.25% trypsin and counted. The cells were inoculated into 96-well plates at 2000 cells per well, and the 96-well plates were placed and cultured in an incubator containing 5% CO2 at 37° C. for 12 h.
as §1, with “for the compound to be” for “for the compounds to be”
as §2

Row | Compound | pIC50 [1] | pIC50 [2] | pIC50 [3]
1 | CC(C)NC1CC(C(=O)Nc2sc3c(c2-c2nc4ccc(-c5ccc(N6CCNCC6)nc5)cc4s2)CCNC3)C1 (stereo not shown) [Compound 009, 3-(isopropylamino)-N-(3-(6-(6-(piperazin-1-yl)pyridin-3-yl)benzo[d]thiazol-2-yl)-4,5,6,7-tetrahydrothieno [2,3-c]pyridin-2-yl) cyclobutane-1-carboxamide] | 9.28 | > 6.82 | –
2 | Cc1cn(-c2ccc3nc(-c4c(NC(=O)C5CC(NC(C)C)C5)sc5c4CCNC5)sc3c2)cn1 (stereo not shown) [Compound 014, 3-(isopropylamino)-N-(3-(6-(4-methyl-1H-imidazol-1-yl)benzo[d]thiazol-2-yl)-4,5,6,7-tetrahydrothieno[2,3-c]pyridin-2-yl)cyclobutane-1-carboxamide] | – | > 6.82 | –
3 | CC(C)NC1CC(C(=O)Nc2sc3c(c2-c2nc4ccc(C5=CCN(C)CC5)cc4s2)CCNC3)C1 (stereo not shown) [Compound 017, 3-(isopropylamino)-N-(3-(6-(1-methyl-1,2,3,6-tetrahydropyridin-4-yl)benzo[d]thiazol-2-yl)-4,5,6,7-tetrahydrothieno[2,3-c]pyridin-2-yl)cyclobutane-1-carboxamide] | 8.36 | > 6.82 | –
4 | CC(C)NC1CC(C(=O)Nc2sc3c(c2-c2nc4cc(C5=CCNCC5)ccc4s2)CCNC3)C1 (stereo not shown) [Compound 022, 3-(isopropylamino)-N-(3-(5-(1,2,3,6-tetrahydropyridin-4-yl)benzo[d]thiazol-2-yl)-4,5,6,7-tetrahydrothieno [2,3-c]pyridin-2-yl) cyclobutane-1-carboxamide] | – | > 6.82 | –
5 | CC(C)NC1CC(C(=O)Nc2sc3c(c2-c2nc4ccc(-c5ccc(C6=CCNCC6)nc5)cc4s2)CCNC3)C1 (stereo not shown) [Compound 047, 3-(isopropylamino)-N-(3-(6-(1′,2′,3′,6′-tetrahydro-[2, 4′-bipyridin]-5-yl)benzo [d]thiazol-2-yl)-4,5,6,7-tetrahydrothieno[2,3-c]pyridin-2-yl)cyclobutane-1-carboxamide] | 7.74 | > 6.82 | 5.79
6 | CC(C)NC1CC(C(=O)Nc2sc3c(c2-c2nc4ccc(C5=CCNCC5)cc4s2)CCNC3)C1 (stereo not shown) [Compound 048, 3-(isopropylamino)-N-(3-(6-(1,2,3,6-tetrahydropyridin-4-yl)benzo[d]thiazol-2-yl)-4,5,6,7-tetrahydrothieno[2,3-c]pyridin-2-yl)cyclobutane-1-formylamino] | 8.47 | > 6.82 | 5.93
7 | CC(C)NC1CCC(C(=O)Nc2sc3c(c2-c2nc4ccc(-c5ccc(N6CCNCC6)nc5)cc4s2)CCNC3)CC1 (stereo not shown) [Compound 069, 4-(isopropylamino)-N-(3-(6-(6-(piperazin-1-yl)pyridin-3-yl)benzo[d]thiazol-2-yl)-4,5,6,7-tetrahydrothieno [2,3-c]pyridin-2-yl) cyclohexane-1-carboxamide] | 8.11 | > 6.82 | 5.61
8 | CC(C)NCCNC(=O)Nc1sc2c(c1-c1nc3ccccc3s1)CCNC2 [Compound 077, 1-(3-(benzo[d]thiazol-2-yl)-4,5,6,7-tetrahydrothieno[2,3-c]pyridin-2-yl)-3-(2-(isopropylamino)ethyl) urea] | 7.36 | > 6.82 | 5.90
9 | COCCNC1CC(C(=O)Nc2sc3c(c2-c2nc4ccc(C5=CCNCC5)cc4s2)CCNC3)C1 (stereo not shown) [Compound 119, 3-((2-methoxyethyl)amino)-N-(3-(6-(1,2,3,6-tetrahydropyridin-4-yl)benzo [d]thiazol-2-yl)-4,5,6,7-tetrahydrothieno[2,3-c]pyridin-2-yl)cyclobutane-1-carboxamide] | – | > 6.82 | –
10 | CC(C)(C)NC1CC(C(=O)Nc2sc3c(c2-c2nc4ccc(C5=CCNCC5)cc4s2)CCNC3)C1 (stereo not shown) [Compound 120, 3-(tert-butylamino)-N-(3-(6-(1,2,3,6-tetrahydropyridin-4-yl)benzo[d]thiazol-2-yl)-4,5,6,7-tetrahydrothieno [2,3-c]pyridin-2-yl) cyclobutane-1-carboxamide] | 8.56 | > 6.82 | 6.12
11 | Cc1cn(-c2ccc3sc(-c4c(NC(=O)C5CC(NC(C)C)C5)sc5c4CCNC5)nc3c2)cn1 (stereo not shown) [Compound 121, 3-(isopropylamino)-N-(3-(5-(4-methyl-1H-imidazol-1-yl)benzo[d]thiazol-2-yl)-4,5,6,7-tetrahydrothieno [2,3-c]pyridin-2-yl) cyclobutane-1-carboxamide] | – | > 6.82 | 6.14
12 | CNCCNC(=O)C(=O)Nc1sc2c(c1-c1nc3ccc(C4=CCNCC4)cc3s1)CCNC2 [Compound 125, N^1-(2-(methylamino)ethyl)-N^2-(3-(6-(1,2,3,6-tetrahydropyridin-4-yl)benzo [d]thiazol-2-yl)-4,5,6,7-tetrahydrothieno[2,3-c]pyridin-2-yl)oxalamide] | 7.19 | – | 4.95
13 | COCCNCCC(=O)Nc1sc2c(c1-c1nc3cc(-n4cnc(C)c4)ccc3s1)CCNC2 [Compound a, reference compound] | 7.13 | 5.82 to 6.82 | 6.28
14 | CC(C)NCCC(=O)Nc1sc2c(c1-c1nc(-c3ccccc3)cs1)CCNC2 [Compound b, reference compound] | 7.01 | – | 6.62
